Assay results as given in patent publication US9265189B2, “Method for reducing damage by harmful organisms in corn cultivation” (SUMITOMO CHEMICAL COMPANY, LIMITED, priority 2012, dated 2016).

Legend:
Format in all cases: in vivo
Agriotes sordidus = assay: Field test, corn plants damaged by Agriotes sordidus after in-furrow spray (Example 3); conditions: Example section 3: clothianidin 25 g/ha, in-furrow spray of Dantop 50WG aqueous suspension 100 L/ha, corn KUBRIK, 34 days after application; non-treatment section 34.6
Method: A cultivated land was ditched at intervals of 75 cm to a depth of 3 cm from the soil surface, and the furrow was seeded with corn (Zea Mays, variety name: KUBRIK; hybrid variety) at intervals of 17 cm. A seeding density of corn was 78000 seeds/ha. Then, the furrow was spray-treated with an aqueous suspension of a clothianidin water dispersible granule (using a 50% water dispersible granule, trade name: Dantop 50WG, manufactured by Philagro) at 100 L/ha so that the application amount of clothianidin was 25 g/ha, and then a soil on the side of the furrow was gathered together to close the furrow. This was defined as an example section 3. For comparison, a non-treatment section, which was seeded with corn without application of a clothianidin water dispersible granule, was provided. In any section, four places were arranged by a randomized block method, with one place having an area of 54 m^2 (18 m×3 m). 34 days after application of the clothianidin water dispersible granule, the number of plants of corn damaged by Agriotes sordidus in each of the example section 3 and the non-treatment section was investigated, a damage plant rate was calculated in accordance with the following equation, and then an average damage plants rate of the four investigation sections was determined. Damage plant rate(%)=[(number of plants of corn damaged)/(number of plants of corn seeded)]×100

[1] = system: Diabrotica virgifera virgifera and Agriotes lineatus; assay: Field test, corn lodged due to damage by Diabrotica virgifera virgifera and Agriotes lineatus (Example 5); conditions: Example section 5: clothianidin 80 g/ha, in-furrow spray of Dantop 50WG 125 L/ha, corn DKC 5143 seed treated with Maxim XL, MaisTer pre-treatment, 155 days after application; non-treatment section 36
From the text: A chemical fertilizer (N:P:K=15:15:15) was applied to the soil surface of a cultivated land at 300 kg/ha, and the cultivated land was then plowed. In order to prevent generation of weeds, 28 days after fertilization, the whole cultivated land was spraying-treated with a mixed agent (using 610 g/kg water dispersible granule, trade name: […], manufactured by Bayer CropScience) of foramsulfuron and an iodosulfuron-methyl-sodium salt, each of which being a herbicide, and a safener, isoxadifen-ethyl, at 0.15 L/ha in terms of an application amount of the preparation. 3 days after application of the preparation, using a pneumatic seeder (disk furrow opener) equipped with a power sprayer, a cultivated land was ditched at intervals of 75 cm to a depth of 5 cm from the soil surface, and the furrow was seeded with corn (variety name: DKC 5143; hybrid variety, manufactured by Monsanto). […] 155 days after application of the clothianidin water dispersible granule, the number of plants of corn lodged due to damage by Diabrotica virgifera virgifera and Agriotes lineatus in the furrows of the example section 5 and the non-treatment section, for which the number of plants of corn germinated was investigated, was investigated, a lodge rate was calculated in accordance with the following equation, and then an average lodge rate for the four investigation sections was determined. […]

[2] = system: Diabrotica virgifera virgifera and Agriotes lineatus; assay: Field test, lodge rate, clothianidin in-furrow, seed treated with thiuram and cyprosulfamide (Example 9); conditions: clothianidin 50 g/ha in-furrow spray 125 L/ha, 165 days after application, example in present tense
From the text: A chemical fertilizer (N:P:K=15:15:15) is applied to the soil surface of a cultivated land at 300 kg/ha, and the cultivated land is then plowed. 7 days after fertilization, for suppressing generation of weeds, the soil surface of the whole cultivated land is spray-treated with a mixed liquid containing thiencarbazone-methyl and isoxaflutole, each of which being a herbicide, at 150 L/ha so that the application amounts of thiencarbazone-methyl and isoxaflutole are 9.2 g/ha and 23 g/ha. 21 days after fertilization, using a pneumatic seeder (disk furrow opener) equipped with a power sprayer, a cultivated land is ditched at intervals of 75 cm to a depth of 5 cm from the soil surface, and the furrow is seeded with corn (Zea Mays; hybrid variety). The furrow is seeded at intervals of 20 cm using, as a seed of corn, one treated with thiuram and cyprosulfamide. A seeding density of corn is 70000 seeds/ha. […] 165 days after application of the aqueous suspension of clothianidin, the number of plants of corn lodged due to damage by Diabrotica virgifera virgifera and Agriotes lineatus in the furrows of the treatment section and the non-treatment section, for which the number of plants of corn germinated is investigated, is investigated, a lodge rate is calculated in accordance with the following equation, and then an average lodge rate for the four investigation sections is determined.

Compound: CN/C(=N\[N+](=O)[O-])NCc1cnc(Cl)s1 [clothianidin]
- Damage plant rate (%) (Agriotes sordidus): 1.8%
- Lodge rate (%) [1]: 0%
- Lodge rate compared to non-treatment section [2]: low lodge rate as compared to the non-treatment section
